# Test system: 565726-208-R1-J5-PDC complex spheroids, growth inhibition
# Assay: Anticancer human tumor 565726-208-R1-J5-PDC patient-derived pancreatic adenocarcinoma cell line growth inhibition [RAS]
# Settings: for IC50: curve of first compound; for viability, T/C: stronger effect = lower value
# In short: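 Multi-cell-type spheroids: tumor cells plus HUVEC endothelial cells and mesenchymal stem cells. RAS-pathway inhibitors were combined with targeted agents, each dosed in half-log steps down from clinical Cmax, or from 10 microM when Cmax was unknown.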
# [1] = second compound 0.000949 µM, first compound 0.0316 µM
# [2] = second compound 0.000949 µM, first compound 0.1 µM
# [3] = second compound 0.000949 µM, first compound 0.316 µM
# [4] = second compound 0.000949 µM, first compound 1 µM
# [5] = second compound 0.000949 µM, first compound 3.16 µM
# [6] = second compound 0.000949 µM, first compound 10 µM
# [7] = second compound 0.003 µM, first compound 0.0316 µM
# [8] = second compound 0.003 µM, first compound 0.1 µM
# [9] = second compound 0.003 µM, first compound 0.316 µM
# [10] = second compound 0.003 µM, first compound 1 µM
# [11] = second compound 0.003 µM, first compound 3.16 µM
# [12] = second compound 0.003 µM, first compound 10 µM
# [13] = second compound 0.00949 µM, first compound 0.0316 µM
# [14] = second compound 0.00949 µM, first compound 0.1 µM
# [15] = second compound 0.00949 µM, first compound 0.316 µM
# [16] = second compound 0.00949 µM, first compound 1 µM
# [17] = second compound 0.00949 µM, first compound 3.16 µM
# [18] = second compound 0.00949 µM, first compound 10 µM
# [19] = second compound 0.03 µM, first compound 0.0316 µM
# [20] = second compound 0.03 µM, first compound 0.1 µM
# [21] = second compound 0.03 µM, first compound 0.316 µM
# [22] = second compound 0.03 µM, first compound 1 µM
# [23] = second compound 0.03 µM, first compound 3.16 µM
# [24] = second compound 0.03 µM, first compound 10 µM
# [25] = second compound 0.0949 µM, first compound 0.0316 µM
# [26] = second compound 0.0949 µM, first compound 0.1 µM
# [27] = second compound 0.0949 µM, first compound 0.316 µM
# [28] = second compound 0.0949 µM, first compound 1 µM
# [29] = second compound 0.0949 µM, first compound 3.16 µM
# [30] = second compound 0.0949 µM, first compound 10 µM
# [31] = second compound 0.3 µM, first compound 0.0316 µM
# [32] = second compound 0.3 µM, first compound 0.1 µM
# [33] = second compound 0.3 µM, first compound 0.316 µM
# [34] = second compound 0.3 µM, first compound 1 µM
# [35] = second compound 0.3 µM, first compound 3.16 µM
# [36] = second compound 0.3 µM, first compound 10 µM
# 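Also: spheroids exposed to compounds for seven days before readout.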
# 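For viability, T/C in this document: 100% = DMSO vehicle control viability.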
smiles,measurement,setting,value
CC(C)n1nc(-c2ccc3oc(N)nc3c2)c2c(N)ncnc21 + C#Cc1c(F)ccc2cc(O)cc(-c3ncc4c(N5CC6CCC(C5)N6)nc(OCC56CCCN5CC(F)C6)nc4c3F)c12,IC50,second compound 0.0316 µM,> 100 nM
same,IC50,second compound 0.1 µM,> 100 nM
same,IC50,second compound 0.316 µM,> 100 nM
same,IC50,second compound 1 µM,14.4 nM
same,IC50,second compound 3.16 µM,5.06 nM
same,IC50,second compound 10 µM,4.63 nM
same,"viability, T/C","second compound 0.0316 µM, first compound 0.000316 µM",108%
same,"viability, T/C","second compound 0.0316 µM, first compound 0.001 µM",156%
same,"viability, T/C","second compound 0.0316 µM, first compound 0.00316 µM",87.2%
same,"viability, T/C","second compound 0.0316 µM, first compound 0.01 µM",68.4%
same,"viability, T/C","second compound 0.0316 µM, first compound 0.0316 µM",63.7%
same,"viability, T/C","second compound 0.0316 µM, first compound 0.1 µM",49.2%
same,"viability, T/C","second compound 0.1 µM, first compound 0.000316 µM",123%
same,"viability, T/C","second compound 0.1 µM, first compound 0.001 µM",135%
same,"viability, T/C","second compound 0.1 µM, first compound 0.00316 µM",73.8%
same,"viability, T/C","second compound 0.1 µM, first compound 0.01 µM",72.5%
same,"viability, T/C","second compound 0.1 µM, first compound 0.0316 µM",59.7%
same,"viability, T/C","second compound 0.1 µM, first compound 0.1 µM",51%
same,"viability, T/C","second compound 0.316 µM, first compound 0.000316 µM",123%
same,"viability, T/C","second compound 0.316 µM, first compound 0.001 µM",149%
same,"viability, T/C","second compound 0.316 µM, first compound 0.00316 µM",83.5%
same,"viability, T/C","second compound 0.316 µM, first compound 0.01 µM",59.8%
same,"viability, T/C","second compound 0.316 µM, first compound 0.0316 µM",50.6%
same,"viability, T/C","second compound 0.316 µM, first compound 0.1 µM",42.8%
same,"viability, T/C","second compound 1 µM, first compound 0.000316 µM",126%
same,"viability, T/C","second compound 1 µM, first compound 0.001 µM",115%
same,"viability, T/C","second compound 1 µM, first compound 0.00316 µM",68.3%
same,"viability, T/C","second compound 1 µM, first compound 0.01 µM",62.4%
same,"viability, T/C","second compound 1 µM, first compound 0.0316 µM",41.7%
same,"viability, T/C","second compound 1 µM, first compound 0.1 µM",40%
same,"viability, T/C","second compound 3.16 µM, first compound 0.000316 µM",111%
same,"viability, T/C","second compound 3.16 µM, first compound 0.001 µM",107%
same,"viability, T/C","second compound 3.16 µM, first compound 0.00316 µM",56.5%
same,"viability, T/C","second compound 3.16 µM, first compound 0.01 µM",47.7%
same,"viability, T/C","second compound 3.16 µM, first compound 0.0316 µM",32.9%
same,"viability, T/C","second compound 3.16 µM, first compound 0.1 µM",30.6%
same,"viability, T/C","second compound 10 µM, first compound 0.000316 µM",96.9%
same,"viability, T/C","second compound 10 µM, first compound 0.001 µM",80.5%
same,"viability, T/C","second compound 10 µM, first compound 0.00316 µM",56.4%
same,"viability, T/C","second compound 10 µM, first compound 0.01 µM",36%
same,"viability, T/C","second compound 10 µM, first compound 0.0316 µM",25.6%
same,"viability, T/C","second compound 10 µM, first compound 0.1 µM",18.4%
C[C@@H](NC(=O)c1ncnc(N)c1Cl)c1ncc(C(=O)Nc2cc(C(F)(F)F)c(Cl)cn2)s1 + CCn1c(-c2cccnc2C(C)OC)c2c3cc(ccc31)N1CCOC(CC(NC(=O)C(C(C)C)N(C)C(=O)C3(F)CCN(C(=O)C#CC(C)(C)N(C)C)CC3)C(=O)N3CCCC(N3)C(=O)OCC(C)(C)C2)C1,IC50,second compound 0.000949 µM,> 10000 nM
same,IC50,second compound 0.003 µM,> 10000 nM
same,IC50,second compound 0.00949 µM,> 10000 nM
same,IC50,second compound 0.03 µM,> 10000 nM
same,IC50,second compound 0.0949 µM,> 10000 nM
same,IC50,second compound 0.3 µM,> 10000 nM
same,"viability, T/C",[1],111%
same,"viability, T/C",[2],109%
same,"viability, T/C",[3],113%
same,"viability, T/C",[4],103%
same,"viability, T/C",[5],98.1%
same,"viability, T/C",[6],83.3%
same,"viability, T/C",[7],118%
same,"viability, T/C",[8],111%
same,"viability, T/C",[9],107%
same,"viability, T/C",[10],109%
same,"viability, T/C",[11],98%
same,"viability, T/C",[12],79.8%
same,"viability, T/C",[13],108%
same,"viability, T/C",[14],107%
same,"viability, T/C",[15],104%
same,"viability, T/C",[16],114%
same,"viability, T/C",[17],105%
same,"viability, T/C",[18],82.2%
same,"viability, T/C",[19],102%
same,"viability, T/C",[20],110%
same,"viability, T/C",[21],112%
same,"viability, T/C",[22],112%
same,"viability, T/C",[23],105%
same,"viability, T/C",[24],80.9%
same,"viability, T/C",[25],108%
same,"viability, T/C",[26],101%
same,"viability, T/C",[27],99.7%
same,"viability, T/C",[28],108%
same,"viability, T/C",[29],90.1%
same,"viability, T/C",[30],90.6%
same,"viability, T/C",[31],91.3%
same,"viability, T/C",[32],98.7%
same,"viability, T/C",[33],95%
same,"viability, T/C",[34],107%
same,"viability, T/C",[35],90%
same,"viability, T/C",[36],77.5%
CC1(O)CCCC1n1c(=O)c(C(F)F)cc2cnc(NC3CCN(S(C)(=O)=O)CC3)nc21 (stereo unspecified) + CCn1c(-c2cc(N3CCN(C)CC3)cnc2C(C)OC)c2c3cc(ccc31)-c1csc(n1)CC(NC(=O)C1CC1C)C(=O)N1CCCC(N1)C(=O)OCC(C)(C)C2,IC50,second compound 0.000949 µM,1010 nM
same,IC50,second compound 0.003 µM,< 31.6 nM
same,IC50,second compound 0.00949 µM,< 31.6 nM
same,IC50,second compound 0.03 µM,< 31.6 nM
same,IC50,second compound 0.0949 µM,< 31.6 nM
same,IC50,second compound 0.3 µM,< 31.6 nM
same,"viability, T/C",[1],58%
same,"viability, T/C",[2],46.6%
same,"viability, T/C",[3],47.6%
same,"viability, T/C",[4],50.4%
same,"viability, T/C",[5],33.1%
same,"viability, T/C",[6],3.21%
same,"viability, T/C",[7],48.5%
same,"viability, T/C",[8],45.7%
same,"viability, T/C",[9],43.9%
same,"viability, T/C",[10],37.1%
same,"viability, T/C",[11],26.5%
same,"viability, T/C",[12],2.82%
same,"viability, T/C",[13],41.4%
same,"viability, T/C",[14],36.7%
same,"viability, T/C",[15],37.6%
same,"viability, T/C",[16],31.7%
same,"viability, T/C",[17],25%
same,"viability, T/C",[18],3.34%
same,"viability, T/C",[19],34.2%
same,"viability, T/C",[20],29.8%
same,"viability, T/C",[21],31.3%
same,"viability, T/C",[22],31.2%
same,"viability, T/C",[23],17.3%
same,"viability, T/C",[24],3.06%
same,"viability, T/C",[25],25.7%
same,"viability, T/C",[26],25.4%
same,"viability, T/C",[27],26%
same,"viability, T/C",[28],24.2%
same,"viability, T/C",[29],15.3%
same,"viability, T/C",[30],2.88%
same,"viability, T/C",[31],19.9%
same,"viability, T/C",[32],25.7%
same,"viability, T/C",[33],22%
same,"viability, T/C",[34],24.2%
same,"viability, T/C",[35],14.6%
same,"viability, T/C",[36],3.06%

# Reference: PubChem BioAssay AID2060899 (Molecular Pharmacology Branch, DTP, NCI, 2025)
